Results on 23 molecules are retold here after patent publication US7879858B2, “Substituted tetrahydropyrrolopyrazine compounds and the use thereof in pharmaceutical compositions” (Gruenenthal GmbH, priority 2006, dated 2011).

Usually inhibition stands for the percentage by which the read-out fell short of the control.

Experiment [1] deals with NA reuptake. In words: Inhibition of NA (noradrenaline) uptake in rat hypothalamus synaptosomes. It counts as biochemical. Conditions: synaptosomes from hypothalamus of male rat brains. The procedure: (§1) Biological Data Inhibition of NA and 5HT Uptake
(§2) In order to be able to carry out these in vitro studies, synaptosomes are freshly isolated from areas of the rat brain. In each case a so-called “P2” fraction prepared in accordance with the instructions of Gray and Whittaker (E. G. Gray and V. P. Whittaker (1962) J. Anat. 76, 79-88) is prepared. For the NA uptake, these vesicular particles are isolated from the hypothalamus of male rat brains. A detailed description of the method can be found in the literature (M. Ch. Frink, H.-H. Hennies, W. Englberger, M. Haurand and B. Wilffert (1996) Arzneim.-Forsch./Drug Res. 46 (III), 11, 1029-1036).

Experiment [2] deals with T1, Serotonin reuptake (Rattus norvegicus, UniProt P31652).
T1 construct: synaptosomes are freshly isolated from areas of the rat brain; from tissue; host or cells: rat brain synaptosomes (P2 fraction)
Kind of experiment: Inhibition of 5HT (serotonin) uptake in rat brain synaptosomes. In kind it is biochemical. The settings on record: synaptosomes from rat brain; for inhibition at 10 µM: 10 μmol. The procedure:
as §1, §2

Molecules are shown by their SMILES.

T1 sequence (P31652 whole entry): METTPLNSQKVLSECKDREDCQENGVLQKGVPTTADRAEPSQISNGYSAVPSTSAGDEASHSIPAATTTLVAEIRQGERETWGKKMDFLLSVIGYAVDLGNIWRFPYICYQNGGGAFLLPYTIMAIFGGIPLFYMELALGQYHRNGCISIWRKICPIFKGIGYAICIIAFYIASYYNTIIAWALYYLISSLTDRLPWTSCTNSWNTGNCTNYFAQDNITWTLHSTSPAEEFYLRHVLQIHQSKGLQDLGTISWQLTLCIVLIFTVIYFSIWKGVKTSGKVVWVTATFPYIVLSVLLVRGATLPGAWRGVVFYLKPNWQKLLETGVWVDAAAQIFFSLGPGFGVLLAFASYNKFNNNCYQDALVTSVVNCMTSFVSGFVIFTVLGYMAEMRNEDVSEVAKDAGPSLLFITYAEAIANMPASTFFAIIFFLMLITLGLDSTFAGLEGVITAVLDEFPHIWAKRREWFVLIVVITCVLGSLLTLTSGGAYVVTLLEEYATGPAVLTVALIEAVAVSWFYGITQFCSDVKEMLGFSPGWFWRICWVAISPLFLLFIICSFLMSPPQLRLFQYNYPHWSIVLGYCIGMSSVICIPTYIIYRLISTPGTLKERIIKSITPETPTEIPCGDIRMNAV

Turning to `COCC(=O)N1CCn2cccc2C1c1ccccc1` (stereo not shown) [Example 25, 2-methoxy-1-(1-phenyl-3,4-dihydropyrrolo[1,2-a]pyrazin-2(1H)-yl)ethanone], the “NA reuptake % inhibition [10 μmol]” value in experiment [1] worked out at 12%. Moreover, in experiment [2], 10 µM produced 33% inhibition.

In the case of `Cc1ccccc1C(=O)N1CCn2cccc2C1c1ccccc1` (stereo not shown) [Example 26, (1-phenyl-3,4-dihydropyrrolo[1,2-a]pyrazin-2(1H)-yl)(o-tolyl)methanone], the “NA reuptake % inhibition [10 μmol]” value in experiment [1] was 23%. In experiment [2], this molecule returned an inhibition at 10 µM of 32%.

With `COc1ccccc1C(=O)N1CCn2cccc2C1c1ccccc1` (stereo not shown) [Example 27, (2-methoxyphenyl)(1-phenyl-3,4-dihydropyrrolo[1,2-a]pyrazin-2(1H)-yl)methanone], in experiment [1], the “NA reuptake % inhibition [10 μmol]” value turned out to be 15%. In experiment [2], this molecule displayed an inhibition at 10 µM of 28%.

In the case of `O=C(C1CCC1)N1CCn2cccc2C1c1ccc(F)cc1` (stereo not shown) [Example 28, cyclobutyl(1-(4-fluorophenyl)-3,4-dihydropyrrolo[1,2-a]pyrazin-2(1H)-yl)methanone], in experiment [1], the “NA reuptake % inhibition [10 μmol]” value came out at 21%. Further, at 10 µM the inhibition in experiment [2] was 29%.

As to `COc1ccccc1C(=O)N1CCn2cccc2C1c1ccc(Cl)cc1` (stereo not shown) [Example 29, (1-(4-chlorophenyl)-3,4-dihydropyrrolo[1,2-a]pyrazin-2(1H)-yl)(2-methoxyphenyl)methanone], the “NA reuptake % inhibition [10 μmol]” value in experiment [1] was 21%. Moreover, at 10 µM the inhibition in experiment [2] was 34%.

With `COc1cccc(C2c3cccn3CCN2C(=O)c2ccco2)c1` (stereo not shown) [Example 30, furan-2-yl(1-(3-methoxyphenyl)-3,4-dihydropyrrolo[1,2-a]pyrazin-2(1H)-yl)methanone], in experiment [1], the “NA reuptake % inhibition [10 μmol]” value is recorded as 16%. This molecule had an inhibition at 10 µM in experiment [2] of 51%.

As to `Cc1ccccc1C1c2cccn2CCN1C(=O)c1ccccc1F` (stereo not shown) [Example 32, (2-fluorophenyl)(1-o-tolyl-3,4-dihydropyrrolo[1,2-a]pyrazin-2(1H)-yl)methanone], the “NA reuptake % inhibition [10 μmol]” value in experiment [1] worked out at 14%. The inhibition at 10 µM in experiment [2] amounted to 29%.

Consider `O=C(c1ccc2c(c1)OCO2)N1CCn2cccc2C1c1ccc2c(c1)OCCO2` (stereo not shown) [Example 33, benzo[1,3]dioxol-5-yl-[1-(2,3-dihydro-benzo[1,4]dioxin-6-yl)-3,4-dihydro-1H-pyrrolo[1,2-a]pyrazin-2-yl]-methanone], for which, in experiment [1], the “NA reuptake % inhibition [10 μmol]” value is on record as 26%. This molecule gave an inhibition at 10 µM in experiment [2] of 52%.

`Cc1ccccc1C(=O)N1CCn2cccc2C1c1ccc2c(c1)OCCO2` (stereo not shown) [Example 34, [1-(2,3-dihydro-benzo[1,4]dioxin-6-yl)-3,4-dihydro-1H-pyrrolo[1,2-a]pyrazin-2-yl]-o-tolyl-methanone]: the “NA reuptake % inhibition [10 μmol]” value in experiment [1] stood at 22%. The molecule further came in with an inhibition at 10 µM in experiment [2] of 52%.

On to `O=C(c1ccccc1F)N1CCn2cccc2C1c1ccc2c(c1)OCCO2` (stereo not shown) [Example 35, [1-(2,3-dihydro-benzo[1,4]dioxin-6-yl)-3,4-dihydro-1H-pyrrolo[1,2-a]pyrazin-2-yl]-(2-fluoro-phenyl)-methanone], for which, in experiment [1], the “NA reuptake % inhibition [10 μmol]” value came to 43%. The inhibition at 10 µM in experiment [2] came to 66%.

Regarding `O=C(c1cccs1)N1CCn2cccc2C1c1ccc2c(c1)OCCO2` (stereo not shown) [Example 36, [1-(2,3-dihydro-benzo[1,4]dioxin-6-yl)-3,4-dihydro-1H-pyrrolo[1,2-a]pyrazin-2-yl]-thiophen-2-yl-methanone], in experiment [1], the “NA reuptake % inhibition [10 μmol]” value amounted to 41%. The molecule further displayed an inhibition at 10 µM in experiment [2] of 59%.

As to `O=C(c1ccco1)N1CCn2cccc2C1c1ccc2c(c1)OCCO2` (stereo not shown) [Example 37, [1-(2,3-dihydro-benzo[1,4]dioxin-6-yl)-3,4-dihydro-1H-pyrrolo[1,2-a]pyrazin-2-yl]-furan-2-yl-methanone], the “NA reuptake % inhibition [10 μmol]” value in experiment [1] is reported as 32%. In experiment [2], the inhibition at 10 µM was 55%.

In the case of `O=C(c1ccc(F)cc1)N1CCn2cccc2C1c1ccc2c(c1)OCCO2` (stereo not shown) [Example 38, [1-(2,3-dihydro-benzo[1,4]dioxin-6-yl)-3,4-dihydro-1H-pyrrolo[1,2-a]pyrazin-2-yl]-(4-fluoro-phenyl)-methanone], in experiment [1], the “NA reuptake % inhibition [10 μmol]” value amounted to 48%. The same molecule displayed an inhibition at 10 µM in experiment [2] of 58%.

As for `COc1ccccc1C(=O)N1CCn2cccc2C1c1cccc(Cl)c1` (stereo not shown) [Example 39, (1-(3-chlorophenyl)-3,4-dihydropyrrolo[1,2-a]pyrazin-2-(1H)-yl)(2-methoxyphenyl)methanone], the “NA reuptake % inhibition [10 μmol]” value in experiment [1] amounted to 43%. In experiment [2], the “Serotonin reuptake % inhibition [10 μmol]” value is recorded as 46%.

Turning to `O=C(c1ccc2c(c1)OCO2)N1CCn2cccc2C1c1cccc(Cl)c1` (stereo not shown) [Example 40, benzo[d][1,3]dioxol-5-yl(1-(3-chlorophenyl)-3,4-dihydropyrrolo[1,2-a]pyrazin-2(1H)-yl)methanone], the “NA reuptake % inhibition [10 μmol]” value in experiment [1] came to 41%. In experiment [2], this molecule showed an inhibition at 10 µM of 38%.

For the molecule `Cc1ccccc1C(=O)N1CCn2cccc2C1c1cccc(Cl)c1` (stereo not shown) [Example 41, (1-(3-chlorophenyl)-3,4-dihydropyrrolo[1,2-a]pyrazin-2(1H)-yl)(o-tolyl)methanone], the “NA reuptake % inhibition [10 μmol]” value in experiment [1] came to 35%. Further, the inhibition at 10 µM in experiment [2] stood at 37%.

For the molecule `O=C(C1CCCC1)N1CCn2cccc2C1c1cccc(Cl)c1` (stereo not shown) [Example 42, (1-(3-chlorophenyl)-3,4-dihydropyrrolo[1,2-a]pyrazin-2(1H)-yl)(cyclopentyl)methanone], in experiment [1], the “NA reuptake % inhibition [10 μmol]” value stood at 22%. For the same molecule, in experiment [2], at 10 µM the inhibition was 30%.

With `O=C(c1cccc(F)c1)N1CCn2cccc2C1c1cccc(Cl)c1` (stereo not shown) [Example 43, [1-(3-chloro-phenyl)-3,4-dihydro-1H-pyrrolo[1,2-a]pyrazin-2-yl]-(3-fluoro-phenyl)-methanone], the “NA reuptake % inhibition [10 μmol]” value in experiment [1] amounted to 66%. The molecule also showed an inhibition at 10 µM in experiment [2] of 58%.

For `O=C(c1ccccc1F)N1CCn2cccc2C1c1cccc(Cl)c1` (stereo not shown) [Example 44, [1-(3-chloro-phenyl)-3,4-dihydro-1H-pyrrolo[1,2-a]pyrazin-2-yl]-(2-fluoro-phenyl)-methanone], the “NA reuptake % inhibition [10 μmol]” value in experiment [1] is on record as 41%. In experiment [2], this molecule came in with an inhibition at 10 µM of 53%.

With `O=C(c1cccs1)N1CCn2cccc2C1c1cccc(Cl)c1` (stereo not shown) [Example 45, [1-(3-chloro-phenyl)-3,4-dihydro-1H-pyrrolo[1,2-a]pyrazin-2-yl]-thiophen-2-yl-methanone], in experiment [1], the “NA reuptake % inhibition [10 μmol]” value is 43%. 10 µM produced 53% inhibition in experiment [2].

In the case of `O=C(c1ccc(F)cc1)N1CCn2cccc2C1c1cccc(Cl)c1` (stereo not shown) [Example 46, [1-(3-chloro-phenyl)-3,4-dihydro-1H-pyrrolo[1,2-a]pyrazin-2-yl]-(4-fluoro-phenyl)-methanone], the “NA reuptake % inhibition [10 μmol]” value in experiment [1] was found to be 50%. For the same molecule, the inhibition at 10 µM in experiment [2] is 52%.

Take `O=C(c1ccccc1F)N1CCn2cccc2C1c1ccccc1F` (stereo not shown) [Example 47, (2-fluorophenyl)(1-(2-fluorophenyl)-3,4-dihydropyrrolo[1,2-a]pyrazin-2(1H)-yl)methanone]: the “NA reuptake % inhibition [10 μmol]” value in experiment [1] is 12%. Moreover, at 10 µM the inhibition in experiment [2] was 18%.

As to `COc1ccccc1C1c2cccn2CCN1C(=O)c1ccccc1F` (stereo not shown) [Example 49, (2-fluorophenyl)(1-(2-methoxyphenyl)-3,4-dihydropyrrolo[1,2-a]pyrazin-2(1H)-yl)methanone], the “NA reuptake % inhibition [10 μmol]” value in experiment [1] is 12%. The same molecule registered an inhibition at 10 µM in experiment [2] of 47%.
